From patent US20210393549A1, “New use of R-enantiomer of adrenergic beta 2 receptor agonists for treatment of inflammatory bowel disease and its extra intestinal manifestations” (priority 2018, published 2021)
Like-named read-outs stand apart in the source and are kept apart here.

Tests used:
[1] = system: DSS induced acute colitis; details: for Hist score (histological score): epithelium 0-4 plus infiltration 0-4; for Hist score (histological score) / Col Length (colon length): tenth day; for Hist score (histological score) / FOB (fecal occult blood) / Weight / DAI (disease active index) / Col Length (colon length): 1 mg/kg (R-B, S-B 10 mg/kg; RS-C 2 mg/kg); for Hist score (histological score) / FOB (fecal occult blood) / Weight / Col Length (colon length): mean ± SD; for FOB (fecal occult blood): grade 0, 2, 4; for FOB (fecal occult blood) / Weight / Col Length (colon length): i.g. daily 8 days; for DAI (disease active index): score 0 to 12, i.g. daily 8 days from 2nd day of DSS, n=5; for colon histology (H&E), in words: Example 1, compared with untreated DSS mice
Source text: In one embodiment, IBD was induced in mice by add DSS into drink water for 7 days. […] (Cooper, S. et al., Clinic pathologic study of dextran sulfate sodium experimental murine colitis, Laboratory Investigation, vol. 69, no. 2, p. 238-249, 1993)
The mice were scarified at day 10th for anatomy and histology evaluations. […] Each of the above histological features was scored individually and added together which is then collectively expressed as “histological score”, for quantitative evaluation (Cooper, S. et al., above).
Male C57BL mice (8-10 weeks, 18-20 g) were grouped into control (drinking water only), DSS and DSS plus treatment groups (n=5). Acute colitis was induced by feeding mice with 2% (w/v) dextran sulfate sodium (DSS) (molecular mass 36-50 kDa) added to the drinking water given ad libitum for 7 days. At the end of seventh day, DSS was removed and animals received only drinking water for 2 days. The animals were euthanized for anatomical and histological examination at the tenth day after DSS ingestion.
R-salbutamol (R-S) (1 mg/kg, S-salbutamol (S-S) (1 mg/kg), R-terbutaline (R-T) (1 mg/kg), S-terbutaline (S-T) (1 mg/kg), R-bambuterol (10 mg/kg), S-bambuterol (S-B) (10 mg/kg), R-clenbuterol (R-C) (1 mg/kg), RS-clenbuterol (RS-C) (2 mg/kg) were administered i.g. daily, starting from the 2nd day of DSS induction for consecutive 8 days. Dexamethasone (Dex), 1 mg/kg) was used as a reference drug.
Evaluation of disease symptoms and histological changes Disease activity index (DAI): Animals were monitored daily for weight, water/food consumption, morbidity, stool consistency and fecal blood. […] The colon length was recorded as an indicator of inflammation. The entire colon was cut open longitudinally and gently flushed with sterile phosphate-buffered saline (PBS) to remove any traces of feces for pathology preparation. Colon segments were fixed in 10% neutral buffered formalin. Tissues were embedded in paraffin, sectioned, mounted on slides. H&E-stained paraffin section images were acquired. Pathological evaluation was conducted in a blinded manner.
Histological Score: the scores were given as follows: epithelium, 0=normal morphology, 1=loss of goblet cells, 2=loss of goblet cells in large areas, 3=loss of crypts, and 4=loss of crypts in large areas; and inflammation cells infiltration, 0=no infiltrate, 1=infiltrate around the crypt basis, 2=infiltrate reaching the muscularis mucosae, 3=extensive infiltration reaching the muscularis mucosae and thickening of the mucosa with abundant edema, and 4=infiltration of the submucosa. Data were presented as mean±the standard deviation (SD).

[2] = system: knee joints (articular cartilage, meniscus); assay: Damage of knee joints in DSS induced IBD mice; format: in vivo; details: compared with untreated DSS mice
Source text: In one embodiment, in DSS induced IBD mice, there was also a damage of knee joints. The articular cartilage structure became thinner and partially destroyed. The chondrocytes were degenerated, decreased and clustered. The meniscuses were damaged and lost its structural integrity. In X-ray, the layer of articular cartilage was thinner and bone structure was decreased. […] The articular cartilage and bone structure increased toward normal.

[3] = system: DSS induced sub-acute colitis; assay: Prolonged (two weeks) treatment in DSS induced sub-acute colitis; format: in vivo, mice; details: evaluation at 23rd day, salbutamol 1 mg/kg, bambuterol 10 mg/kg
Source text: Same as example 2, except. 1), Two Weeks Treatment within a Three Weeks of Study
DSS was removed from drinking water at the end of 1st week. The treatments were started at 1st day for consecutive 14 days (2 weeks). Only drinking water given for the 3rd week. The evaluation and examination were made at 23rd day as did in example 1.

[4] = system: DSS induced sub-acute colitis; format: in vivo; parameters: DAI (disease active index) / FOB (fecal occult blood) / Hist score (histological score): scale not given here; Weight / Col Length (colon length): unit not given here; details: for Col Length (colon length) / DAI (disease active index) / FOB (fecal occult blood) / Hist score (histological score) / Weight: one week treatment, evaluation at 23rd day, R-S, S-S 1 mg/kg, R-B, S-B 10 mg/kg; for length of colon-rectors, in words: sub-acute DSS colitis; for length of colon-rectors, in words / histological index / histological score, in words / fecal occult blood, in words / DAI, in words: compared with untreated DSS mice; for body weights, in words / histological index / histological score, in words / fecal occult blood, in words / DAI, in words: sub-acute or chronic DSS colitis; for fecal occult blood, in words: day 14th and 22nd
Source text: This invention also disclosed the used of R-salbutamol for treatment of sub acute or chronic phases of IBD. In one embodiment, IBD was induced by DSS as mentioned above, along with the treatment of R-salbutamol, at day 7th, DSS was removed and replaced with drinking water for additional 2 weeks. The disease active index (DAI) of mice was examined and evaluated periodically. The mice were scarified for pathological and histological evaluations at day of 23rd. In DSS induce IBD mice, there were significant loss of weight and fecal occult blood at day 14th and 22nd. The overall condition of colitis was severe although there was slightly improvement comparing the day 7th. The colon-rector length was significant shortened, and histological score were significant higher from control. In mice with DSS induced colitis, there were significant mononuclear leucocytes infiltration, few newly grew crypts with architectural disarray, denegation of epithelia, mucosa aberrant. There was also deep mucosal lymphocytosis, destruction of lamina propria and sometimes, transmural inflammation.
Same as example 1, except • 1), Three weeks' study with one week treatment.
DSS and all the treatment was removed and replaced with drinking water at the end of 1st week. Mice were given drink water and food ad libitum for additional 2 weeks.

[5] = system: IMQ-induced Psoriasis-Like Skin lesions; assay: IMQ-induced psoriasis-like skin lesions; format: in vivo, mice; details: dorsal skin, IMQ-induced psoriasis mice
Procedure: Mice were divided into control, psoriasis and psoriasis plus treatment groups, (n=8 in each group). Psoriasis were induced by topical application of imiquimod cream (62.5 mg) on shaved dorsal skin for seven consecutive days. Vaseline was used in control group. There were four treatment groups: three doses of R-salbutamol (R-Sal) (0.5 mg, 1 mg, 2 mg/kg) and Dexamethasone (1 mg/kg) as positive control. All the treatments and same volume of saline (in control group) were administered orally. In some experiment, R-bambuterol (long-last beta2 agonist) was used as an additional treatment group (n=3). Psoriasis Area Severity Index were used for evaluation. Each of the scores for erythema, scaling and skin thickness were measured separately and then group together as a calculative score. (FIG. 2)

[6] = system: DNCB induced allergic contact dermatitis; assay: DNCB induced allergic contact dermatitis model (eczema); format: in vivo, mice; details: oral 8 days, indomethacin 5 mg/kg
Procedure: Mice was shaved at abdominal area DNCB (100 μL 0.5%) is dissolved and applied to the shaved skin to induce Atopica dermatitis for 2 consecutive days. At day 8th, DNCB was applied to both inner and outer surfaces of ears to induce eczema. Treatment of R-salbutamol and indomethacin were given orally at day 1st for consecutive 8 days. The mice were scarified at day 9th for examination and evaluation. Mice were divided into four groups (n=8), namely A, Control; B. Eczema (DNCB); C. Eczema plus R-Salbutamol of 0.05, 0.1 or 0.2 mg/kg; D. Eczema plus indomethacin of 5 mg/kg. The inflammation scores were evaluated according to swelling, erythema, scratch and thickness of both ears. [table]

[7] = system: TNBS-induced colitis; assay: TNBS-induced colitis (model for Crohn's disease); format: in vivo, Male mice; details: TNBS treated mice
Source text: Male mice colitis was induced by rectal co-administration of ethanol and TNBS (Trinitrobenzenesulfonic acid). Severe colitis in mice that was characterized by weight loss and diarrhea. Histologically there were loss of normal structures, visible discrete epithelioid granuloma, multiple erosive lesions, massive transmural inflammation infiltration of lymphocytes, and the loss of goblet cells. […] There was significant alleviation of lesions, few inflammatory infiltration with growing crypts and recovery mucosa epithelia along the column. […] In addition, in TNBS treated colitis mice, there were perianal symptoms: erythema, abscesses and ulcers found in some mice, which may lead to perianal fissures or fistulas. […] The therapeutically effects of R-salbuterol, R-clenbuterol and R-bambuterol on the symptoms in TNBS induced Crohn's disease has never been reported in prior art.

[8] = acute DSS colitis, compared with untreated DSS mice
[9] = R-Salbutamol 0.05, 0.1 or 0.2 mg/kg

## C[C@@H]1C[C@H]2[C@@H]3CCC4=CC(=O)C=C[C@]4(C)[C@@]3(F)[C@@H](O)C[C@]2(C)[C@@]1(O)C(=O)CO [DEX, Dexamethasone]
[1]
  Hist score (histological score): 6 ± 0.5
  FOB (fecal occult blood): 2.5 ± 0.5
  Weight: 88 ± 2.4
  DAI (disease active index): 7
  Col Length (colon length): 7.1 ± 0.2

## CC(C)(C)NCC(O)c1cc(Cl)c(N)c(Cl)c1 (centres unmarked) [RS-C, RS-clenbuterol]
[1]; [8]
  DAI, in words: much less improvement than DSS mice treated with R-clenbuterol
  histological score, in words: better than DSS untreated but worse than R-enantiomer treated mice
[1]
  Hist score (histological score): 6 ± 0.5
  FOB (fecal occult blood): 4 ± 0.1
  Weight: 87 ± 2
  DAI (disease active index): 10
  Col Length (colon length): 6.5 ± 0.2^

## CN(C)C(=O)Oc1cc(OC(=O)N(C)C)cc([C@H](O)CNC(C)(C)C)c1 [S-B, S-bambuterol]
[1]
  colon histology (H&E), in words: no signs of improvements
  Hist score (histological score): 7.5 ± 1^
  FOB (fecal occult blood): 2.5 ± 0.5
  Weight: 81 ± 3.2
  DAI (disease active index): 12
  Col Length (colon length): 6 ± 0.6
[2]
  damage of articular cartilage, meniscus and bone structure of knee joints: exacerbated
[3]
  DAI, in words: markedly higher than untreated DSS group
  histological score, in words: markedly higher than untreated DSS group
[4]
  Col Length (colon length): 6.8 ± 0.1
  DAI (disease active index): 12
  FOB (fecal occult blood): 3.9 ± 0.1
  Hist score (histological score): 6.9 ± 1^
  Weight: 96 ± 1.1
  length of colon-rectors, in words: shorter
  body weights, in words: lower
  histological index / histological score, in words: markedly higher than untreated DSS mice
  fecal occult blood, in words: more severe

## CC(C)(C)NC[C@@H](O)c1ccc(O)c(CO)c1 [S-S, S-salbutamol]
[5]
  histology of psoriasis skin lesions (HE): worsened the psoriasis histology
[1]
  colon histology (H&E), in words: no signs of improvements
  Hist score (histological score): 7.9 ± 0.5
  FOB (fecal occult blood): 4.5 ± 0.5
  Weight: 80 ± 2.3
  DAI (disease active index): 13
  Col Length (colon length): 6.0 ± 0.9
[1]; S-enantiomers in DSS mice
  toxic effects on the bowel: toxic to the bowel
[1]; acute DSS colitis
  effects in prevent and treatment of DSS induced IBD, in words: no amelioration or therapeutic effects at all
[1]; [8]
  DAI, in words: significantly exacerbated
  FOB, in words: significantly worsened
  histological score, in words: significantly higher than untreated DSS mice
  length of colon-rector / shortening of large bowel, in words: further shortened
[2]
  damage of articular cartilage, meniscus and bone structure of knee joints: exacerbated
[3]
  DAI, in words: markedly higher than untreated DSS group
  histological score, in words: markedly higher than untreated DSS group
[4]
  Col Length (colon length): 6.5 ± 0.9
  DAI (disease active index): 13
  FOB (fecal occult blood): 4.5 ± 0.3
  Hist score (histological score): 7.7 ± 0.5
  Weight: 95 ± 0.8
  length of colon-rectors, in words: shorter
  body weights, in words: lower
  DAI, in words: much worse
  histological index / histological score, in words: markedly higher than untreated DSS mice
  fecal occult blood, in words: more severe

## CC(C)(C)NC[C@@H](O)c1cc(O)cc(O)c1 [S-T, S-terbutaline]
[1]
  colon histology (H&E), in words: no signs of improvements
  Hist score (histological score): 7 ± 1
  FOB (fecal occult blood): 4 ± 0.5
  Weight: 80 ± 2.9
  DAI (disease active index): 12
  Col Length (colon length): 5.9 ± 0.5
[4]
  DAI, in words: much worse than untreated DSS mice
  histological index / histological score, in words: much worse than untreated DSS mice

## CC(C)(C)NC[C@@H](O)c1cc(Cl)c(N)c(Cl)c1 [S-clenbuterol]
[4]
  DAI, in words: much worse than untreated DSS mice
  histological index / histological score, in words: much worse than untreated DSS mice

## COc1ccc2c(c1)c(CC(=O)O)c(C)n2C(=O)c1ccc(Cl)cc1 [indomethacin, reference compound]
[6]; [9]
  erythema score of both ears: lesser effects
  thickness score of both ears: lesser effects
[6]; dose-dependent response
  eczema histology and inflammatory infiltration: little effects on eczema

## infliximab
[7]
  submucosa fibrosis and narrowing of intestinal lumen: enhanced the submucosa fibrosis and lumen narrowing
[7]; listed as IFX
  submucosa fibrosis and narrowing of intestinal lumen: significant submucosa fibrosis and narrowing in lumen
